Among the test systems are A549; BT-549; HCC 2998; HL-60; HOP-62; HOP-92; K562; KM12; M14; Malme-3M; NCI-H226; NCI-H522; OVCAR-3; PC-3; RPMI-8226; RXF 393; SF-295; SNB-75; UACC-257; UACC-62.
What all share (assay): growth of human tumour cells (NCI), 48 h

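Each compound was tested at five concentrations against cells in 96-well plates for 48 hours. GI50 = concentration required for 50% inhibition of growth.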 Activity calls are given as the source filed them. No stated cut-off is given here; in the data, active = GI50 up to about 1.1 µM and inactive = higher.

For the compound `COc1cc(C2c3cc4c(cc3OC(C)(N3CCCC3)C2C)OCO4)cc(OC)c1OC` (stereo not given), the GI50 with A549 is 0.515 µM (active); in the assay on BT-549, 0.232 µM (active); with HCC 2998 it was 0.389 µM (active); with HL-60, 0.182 µM (active); in the assay on HOP-62, 0.301 µM (active); in the assay with HOP-92 it was 2.19 µM (inactive). Also, the GI50 in the assay on K562 was 0.197 µM (active); in the assay with KM12, 0.286 µM (active); with M14, 0.242 µM (active); in the assay on Malme-3M, 0.343 µM (active); with NCI-H226 it was 0.313 µM (active); in the assay on NCI-H522, 0.209 µM (active). The GI50 with OVCAR-3 was 0.203 µM (active); in the assay with PC-3, 0.34 µM (active); in the assay on RPMI-8226, 0.337 µM (active); in the assay on RXF 393 it was 0.256 µM (active); in the assay with SF-295, 0.223 µM (active); with SNB-75, 0.269 µM (active). For the same compound, the GI50 with UACC-257 was 0.437 µM (active); in the assay with UACC-62 it was 0.373 µM (active).
Regarding `CC/C(N)=N\NC(=O)OC(C)(C)C`, the GI50 with A549, in the assay on BT-549, with HCC 2998, in the assay with HL-60, with HOP-62 and in the assay on HOP-92 was > 100 µM (inactive) in each case. Also, the GI50 in the assay on K562, in the assay with KM12, in the assay with M14, in the assay with Malme-3M, in the assay with NCI-H226 and in the assay on NCI-H522 was > 100 µM (inactive) throughout. Besides, the GI50 in the assay with OVCAR-3, in the assay with PC-3, with RPMI-8226, in the assay with RXF 393, in the assay with SF-295 and in the assay with SNB-75 was > 100 µM (inactive) in each case. Further, the GI50 in the assay with UACC-257 and with UACC-62 was > 100 µM (inactive) in each case.
Take `COc1cccc(C2c3cc4c(cc3OC(NNC(N)=O)C2C)OCO4)c1OC` (stereo not given): the GI50 in the assay on A549 was 19.6 µM (inactive); with BT-549, 20.1 µM (inactive); in the assay on HCC 2998, 32 µM (inactive); with HL-60, 20.8 µM (inactive); in the assay on HOP-62, 22 µM (inactive); with HOP-92 it was 19.1 µM (inactive). Moreover, the GI50 with K562 is 19.5 µM (inactive); with KM12, 23.2 µM (inactive); in the assay on M14, 17.1 µM (inactive); in the assay on Malme-3M, 25.9 µM (inactive); in the assay on NCI-H226, 25.3 µM (inactive); in the assay on NCI-H522, 20.4 µM (inactive). In addition, the GI50 in the assay with OVCAR-3 was 17.5 µM (inactive); in the assay with PC-3, 19.4 µM (inactive); in the assay with RPMI-8226 it was 13 µM (inactive); with RXF 393, 14.1 µM (inactive); in the assay on SF-295, 18.1 µM (inactive); with SNB-75, 15.8 µM (inactive). Besides, the GI50 is 27.3 µM (inactive) with UACC-257 and 22.3 µM (inactive) in the assay with UACC-62.
As to `COc1cc(OC)c2c(=O)cc(-c3ccccc3F)[nH]c2c1`, the GI50 in the assay with A549 is 38.5 µM (inactive); with BT-549, > 100 µM (inactive); in the assay on HCC 2998, 18.6 µM (inactive); in the assay on HL-60, > 100 µM (inactive); in the assay on HOP-62, 82.6 µM (inactive); with HOP-92, > 100 µM (inactive). The GI50 was 53.3 µM (inactive) in the assay with K562; 32.9 µM (inactive) with KM12; 39.1 µM (inactive) in the assay with M14; > 100 µM (inactive) in the assay with Malme-3M; 23.7 µM (inactive) with NCI-H226; 27 µM (inactive) in the assay with NCI-H522. Besides, the GI50 with OVCAR-3 was 57 µM (inactive); in the assay on PC-3, 47.2 µM (inactive); with RPMI-8226, 57.8 µM (inactive); in the assay with RXF 393 it was 29.8 µM (inactive); in the assay on SF-295, 34.3 µM (inactive); with SNB-75, 33.9 µM (inactive). Besides, the GI50 is > 100 µM (inactive) in the assay with UACC-257 and 52.8 µM (inactive) with UACC-62.
For the compound `N#CC1=C(S)N(C2OC(CO)C(O)C(O)C2O)C(c2ccccc2)=CC1c1ccccc1` (stereo not given), the GI50 in the assay with A549 is > 100 µM (inactive); in the assay on BT-549 it was 55.2 µM (inactive); with HCC 2998 it was 18.5 µM (inactive); with HL-60 it was 40.9 µM (inactive); in the assay on HOP-62, > 100 µM (inactive); in the assay with HOP-92 it was 31.8 µM (inactive). Besides, the GI50 with K562 is 30.1 µM (inactive); in the assay with KM12, 66.1 µM (inactive); in the assay with M14 it was 37.5 µM (inactive); in the assay with Malme-3M, 52.1 µM (inactive); in the assay with NCI-H226 it was 36.2 µM (inactive); in the assay on NCI-H522, 50.6 µM (inactive). Further, the GI50 with OVCAR-3 was 28.3 µM (inactive); in the assay on PC-3, 30.7 µM (inactive); in the assay with RPMI-8226, 46.5 µM (inactive); in the assay with RXF 393, 25.2 µM (inactive); with SF-295, 34.3 µM (inactive); in the assay with SNB-75, 31.9 µM (inactive). Besides, the GI50 in the assay on UACC-257 is 51.6 µM (inactive); in the assay on UACC-62, 21.7 µM (inactive).
For the compound `Cc1cc(=O)oc2cc3oc(N(C)c4ccccc4)nc(=O)c3cc12`, the GI50 was > 100 µM (inactive) in the assay with A549; 50.2 µM (inactive) with BT-549; > 100 µM (inactive) with HCC 2998; > 100 µM (inactive) in the assay with HL-60; > 100 µM (inactive) in the assay on HOP-62; 22.7 µM (inactive) with HOP-92. Besides, the GI50 in the assay on K562 is > 100 µM (inactive); in the assay on KM12 it was > 100 µM (inactive); with M14, > 100 µM (inactive); in the assay with Malme-3M, > 100 µM (inactive); in the assay with NCI-H226, > 100 µM (inactive); with NCI-H522, 58.9 µM (inactive). The GI50 in the assay with OVCAR-3, with PC-3, in the assay on RPMI-8226, with RXF 393, in the assay with SF-295 and in the assay on SNB-75 was > 100 µM (inactive) each time. Besides, the GI50 in the assay with UACC-257 and with UACC-62 was > 100 µM (inactive) in each case.
As for `CCN(CC)CCNc1ccc2ncn3c4ccc(OC)cc4c(=O)c1c23`, the GI50 was 2.91 µM (inactive) in the assay on A549; 16.3 µM (inactive) in the assay on BT-549; 2.78 µM (inactive) in the assay with HCC 2998; 3.49 µM (inactive) in the assay with HL-60; 5.21 µM (inactive) in the assay with HOP-62; 4.75 µM (inactive) in the assay with HOP-92. Moreover, the GI50 in the assay on K562 is 2.75 µM (inactive); in the assay with KM12 it was 1.78 µM (inactive); with M14, 5.21 µM (inactive); in the assay with Malme-3M it was 9.12 µM (inactive); in the assay with NCI-H226 it was 4.31 µM (inactive); with NCI-H522 it was 2.32 µM (inactive). Further, the GI50 with OVCAR-3 was 7.78 µM (inactive); in the assay with PC-3 it was 3.83 µM (inactive); with RPMI-8226, 1.21 µM (inactive); in the assay on RXF 393 it was 2.23 µM (inactive); in the assay on SF-295, 2.28 µM (inactive); in the assay on SNB-75, 7.08 µM (inactive). Moreover, the GI50 in the assay with UACC-257 was 11.9 µM (inactive); in the assay on UACC-62 it was 16 µM (inactive).
For `C1CCN2CC34CC(CC5CCCN(C6CCCC3N6)C54)C2C1` (stereo not given), the GI50 in the assay with A549, in the assay with BT-549, with HCC 2998, in the assay with HL-60, in the assay on HOP-62 and with HOP-92 was > 100 µM (inactive) each time. Also, the GI50 in the assay with K562, in the assay on KM12, in the assay with M14, with Malme-3M, with NCI-H226 and in the assay on NCI-H522 was > 100 µM (inactive) in each case. Moreover, the GI50 in the assay with OVCAR-3 was > 100 µM (inactive); in the assay on PC-3 it was > 100 µM (inactive); with RPMI-8226, > 100 µM (inactive); with RXF 393 it was 78.9 µM (inactive); in the assay with SF-295, > 100 µM (inactive); in the assay with SNB-75, > 100 µM (inactive). Moreover, the GI50 in the assay on UACC-257 and in the assay with UACC-62 was > 100 µM (inactive) in each case.
Consider `CCC/C=C/C=C/C(=O)OC1C(C)C2(O)C3C=C(C)C(=O)C3CC(COC(C)=O)=CC2C2C(C)(C)C12OC(=O)C(C)C` (stereo not given), for which the GI50 was 0.406 µM (active) in the assay on A549; 20.7 µM (inactive) in the assay with BT-549; 0.329 µM (active) with HCC 2998; 0.532 µM (active) in the assay on HL-60; 0.0438 µM (active) in the assay on HOP-62; 8.81 µM (inactive) in the assay with HOP-92. Also, the GI50 in the assay with K562 was 0.091 µM (active); in the assay on KM12, 16.9 µM (inactive); in the assay with M14 it was 14.1 µM (inactive); in the assay on Malme-3M, 13.4 µM (inactive); in the assay on NCI-H226 it was 15.8 µM (inactive); with NCI-H522, 13.4 µM (inactive). The GI50 is 17.1 µM (inactive) in the assay with OVCAR-3; 11.6 µM (inactive) with PC-3; 11.8 µM (inactive) with RPMI-8226; 17.5 µM (inactive) in the assay on RXF 393; 0.462 µM (active) in the assay on SF-295; 10.3 µM (inactive) in the assay on SNB-75. Besides, the figures for the GI50 in the assay with UACC-257 and with UACC-62 were 16.7 µM (inactive) and 11.2 µM (inactive), respectively.

Values taken from ChEMBL document CHEMBL1201862, “PubChem BioAssay data set” (2004).
